Laboratory results as given in patent US9840513B2 (AbbVie S.à.r.l., priority 2015, dated 2017).

Target: T1, F508delCFTR cell surface expression in CFBE41o-F508delCFTR-HRP cells (Homo sapiens, UniProt P13569, DEL508-508)
T1 construct: fused on or other part: Horseradish peroxidase (HRP) reporter inserted in the fourth exofacial (extracellular) loop of CFTR; expression is doxycycline-inducible
Test: Cell Surface Expression-Horse Radish Peroxidase (CSE-HRP) Assay
Type: cell-based
Details: for EC50: CFBE41o-F508delCFTR-HRP cells, 18-24 hours at 33° C., 8-point curve, highest concentration 20 μM; for Maximum % activity (%): maximum at any tested concentration, normalized to on-plate positive control (3 μM)
Outline: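 CFBE41o- cells with HRP-tagged F508delCFTR, expression induced by 0.5 μg/mL doxycycline for 72 h at 37 °C, then compound for 18-24 h at 33 °C (8-point, 3-fold, top 20 μM). Surface HRP measured by luminol luminescence; % activity normalised to 3 μM positive-control corrector; EC50 from variable-slope sigmoidal fit, three replicate plates.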

T1 sequence (P13569 with tags, fused parts or gaps DEL508-508 limits assumed): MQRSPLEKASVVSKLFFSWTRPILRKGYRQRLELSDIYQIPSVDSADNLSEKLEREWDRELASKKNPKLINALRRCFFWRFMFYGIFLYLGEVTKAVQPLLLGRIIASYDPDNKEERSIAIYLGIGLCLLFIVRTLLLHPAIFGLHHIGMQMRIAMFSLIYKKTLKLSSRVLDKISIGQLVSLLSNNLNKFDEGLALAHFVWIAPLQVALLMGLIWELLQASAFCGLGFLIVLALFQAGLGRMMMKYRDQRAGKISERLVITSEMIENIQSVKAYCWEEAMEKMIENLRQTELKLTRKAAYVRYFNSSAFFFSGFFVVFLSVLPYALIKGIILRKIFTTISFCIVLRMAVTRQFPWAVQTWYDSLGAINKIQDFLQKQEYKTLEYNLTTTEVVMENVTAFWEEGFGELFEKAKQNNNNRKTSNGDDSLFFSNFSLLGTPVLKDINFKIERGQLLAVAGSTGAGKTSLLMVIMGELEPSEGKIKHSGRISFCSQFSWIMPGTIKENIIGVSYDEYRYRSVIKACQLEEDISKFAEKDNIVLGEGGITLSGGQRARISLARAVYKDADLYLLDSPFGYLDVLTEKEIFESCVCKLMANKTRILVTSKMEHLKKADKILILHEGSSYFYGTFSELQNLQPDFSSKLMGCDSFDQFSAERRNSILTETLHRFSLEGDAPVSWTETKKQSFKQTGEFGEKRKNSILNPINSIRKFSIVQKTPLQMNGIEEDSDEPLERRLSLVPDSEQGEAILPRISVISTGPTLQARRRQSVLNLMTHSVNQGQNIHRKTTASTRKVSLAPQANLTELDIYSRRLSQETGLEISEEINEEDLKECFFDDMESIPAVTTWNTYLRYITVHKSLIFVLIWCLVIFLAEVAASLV
T1 sequence (P13569 919-1480 limits assumed, stated change not applied): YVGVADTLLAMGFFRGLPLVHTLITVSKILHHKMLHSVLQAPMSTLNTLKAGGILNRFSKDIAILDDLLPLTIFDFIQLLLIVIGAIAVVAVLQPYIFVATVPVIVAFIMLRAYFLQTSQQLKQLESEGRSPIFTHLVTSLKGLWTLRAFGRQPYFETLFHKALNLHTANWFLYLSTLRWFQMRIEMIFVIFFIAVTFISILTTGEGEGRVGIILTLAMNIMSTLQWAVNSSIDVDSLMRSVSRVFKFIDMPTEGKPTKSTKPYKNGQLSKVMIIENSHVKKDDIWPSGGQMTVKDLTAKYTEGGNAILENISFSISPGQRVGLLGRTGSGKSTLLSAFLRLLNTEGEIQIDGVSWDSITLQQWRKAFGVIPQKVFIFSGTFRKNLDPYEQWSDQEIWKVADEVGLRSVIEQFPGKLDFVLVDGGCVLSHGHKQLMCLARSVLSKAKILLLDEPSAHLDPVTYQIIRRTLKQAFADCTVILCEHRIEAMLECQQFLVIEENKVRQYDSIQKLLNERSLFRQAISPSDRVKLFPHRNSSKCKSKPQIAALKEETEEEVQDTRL

Compound | EC50 | Maximum % activity (%)
COc1ccc2c(c1)O[C@@H](c1ccc(C(=O)NCCCC(N)=O)cn1)C[C@H]2NC(=O)[C@@]1(C)COc2cc3c(cc21)OC(F)(F)O3 [Example 228, N-(4-amino-4-oxobutyl)-6-[(2R,4R)-4-{[(7R)-2,2-difluoro-7-methyl-6,7-dihydro-2H-furo[2,3-f][1,3]benzodioxole-7-carbonyl]amino}-7-methoxy-3,4-dihydro-2H-1-benzopyran-2-yl]pyridine-3-carboxamide] | 90 nM | 108%
CNC(=O)c1cccc(-c2nc(NC(=O)C3(C)COc4cc5c(cc43)OC(F)(F)O5)ccc2C)c1 (stereo not shown) [Example 76, 2,2-difluoro-7-methyl-N-{5-methyl-6-[3-(methylcarbamoyl)phenyl]pyridin-2-yl}-6,7-dihydro-2H-furo[2,3-f][1,3]benzodioxole-7-carboxamide] | 720 nM | 111%
Cc1ccc(NC(=O)[C@@]2(C)COc3cc4c(cc32)OC(F)(F)O4)nc1Cl [Example 77, (7R)—N-(6-chloro-5-methylpyridin-2-yl)-2,2-difluoro-7-methyl-6,7-dihydro-2H-furo[2,3-f][1,3]benzodioxole-7-carboxamide] | 6630 nM | 116%
CC1(C(=O)Nc2cccc(C(=O)NC[C@@H](O)CO)n2)COc2cc3c(cc21)OC(F)(F)O3 (stereo partly drawn) [Example 65, 6-[(2,2-difluoro-7-methyl-6,7-dihydro-2H-furo[2,3-f][1,3]benzodioxole-7-carbonyl)amino]-N-[(2R)-2,3-dihydroxypropyl]pyridine-2-carboxamide] | > 20000 nM | 1%
CCN(CCO)C(=O)[C@H]1CC[C@H]([C@H]2C[C@@H](NC(=O)[C@@]3(C)COc4cc5c(cc43)OC(F)(F)O5)c3ccc(OC(F)(F)F)cc3O2)CC1 [Example 253, (7R)—N-[(2R,4R)-2-{trans-4-[ethyl(2-hydroxyethyl)carbamoyl]cyclohexyl}-7-(trifluoromethoxy)-3,4-dihydro-2H-1-benzopyran-4-yl]-2,2-difluoro-7-methyl-6,7-dihydro-2H-furo[2,3-f][1,3]benzodioxole-7-carboxamide] | 60 nM | 150%
COc1ccc2c(c1)O[C@H](c1ccc(=O)[nH]n1)C[C@H]2NC(=O)[C@@]1(C)COc2cc3c(cc21)OC(F)(F)O3 [Example 200, (7R)-2,2-difluoro-N-[(2S,4R)-7-methoxy-2-(6-oxo-1,6-dihydropyridazin-3-yl)-3,4-dihydro-2H-1-benzopyran-4-yl]-7-methyl-6,7-dihydro-2H-furo[2,3-f][1,3]benzodioxole-7-carboxamide] | 70 nM | 132%
COc1ccc2c(c1)O[C@H](COCc1ccccc1)C[C@@H]2NC(=O)[C@@]1(C)COc2cc3c(cc21)OC(F)(F)O3 [Example 278, (7R)—N-{(2S,4S)-2-[(benzyloxy)methyl]-7-methoxy-3,4-dihydro-2H-1-benzopyran-4-yl}-2,2-difluoro-7-methyl-6,7-dihydro-2H-furo[2,3-f][1,3]benzodioxole-7-carboxamide] | 1540 nM | 86%
C[C@]1(C(=O)Nc2cccc(-c3cccc(C(=O)O)c3)n2)COc2cc3c(cc21)OC(F)(F)O3 [Example 73, 3-(6-{[(7R)-2,2-difluoro-7-methyl-6,7-dihydro-2H-furo[2,3-f][1,3]benzodioxole-7-carbonyl]amino}pyridin-2-yl)benzoic acid] | 2650 nM | 117%
CC1(C)OC[C@@H](Cn2nc(-c3ccccc3)cc(NC(=O)[C@@]3(C)COc4cc5c(cc43)OC(F)(F)O5)c2=O)O1 [Example 26, (7R)—N-(2-{[(4R)-2,2-dimethyl-1,3-dioxolan-4-yl]methyl}-3-oxo-6-phenyl-2,3-dihydropyridazin-4-yl)-2,2-difluoro-7-methyl-6,7-dihydro-2H-furo[2,3-f][1,3]benzodioxole-7-carboxamide] | 980 nM | 85%
C[C@]1(C(=O)N[C@H]2C[C@@H]([C@H]3CC[C@H](C(=O)O)CC3)Oc3cc(OC(F)F)ccc32)COc2cc3c(cc21)OC(F)(F)O3 [Example 163, trans-4-[(2S,4S)-7-(difluoromethoxy)-4-{[(7R)-2,2-difluoro-7-methyl-6,7-dihydro-2H-furo[2,3-f][1,3]benzodioxole-7-carbonyl]amino}-3,4-dihydro-2H-1-benzopyran-2-yl]cyclohexane-1-carboxylic acid] | 810 nM | 75%
COc1ccc2c(c1)O[C@@H](c1ccc(C(=O)NC[C@H]3C[C@H](O)C3)cn1)C[C@H]2NC(=O)[C@@]1(C)COc2cc3c(cc21)OC(F)(F)O3 [Example 245, 6-[(2R,4R)-4-{[(7R)-2,2-difluoro-7-methyl-6,7-dihydro-2H-furo[2,3-f][1,3]benzodioxole-7-carbonyl]amino}-7-methoxy-3,4-dihydro-2H-1-benzopyran-2-yl]-N-[(trans-3-hydroxycyclobutyl)methyl]pyridine-3-carboxamide] | 50 nM | 107%
CC(C)(CO)NC(=O)[C@H]1CC[C@H]([C@H]2C[C@@H](NC(=O)[C@@]3(C)COc4cc5c(cc43)OC(F)(F)O5)c3ccc(OC(F)(F)F)cc3O2)CC1 [Example 268, (7R)-2,2-difluoro-N-[(2R,4R)-2-{trans-4-[(1-hydroxy-2-methylpropan-2-yl)carbamoyl]cyclohexyl}-7-(trifluoromethoxy)-3,4-dihydro-2H-1-benzopyran-4-yl]-7-methyl-6,7-dihydro-2H-furo[2,3-f][1,3]benzodioxole-7-carboxamide] | 120 nM | 186%
CCOC(=O)[C@H]1CC[C@H]([C@H]2C[C@@H](NC(=O)[C@@]3(C)COc4cc5c(cc43)OC(F)(F)O5)c3ccc(OC(F)(F)F)cc3O2)CC1 [Example 148, ethyl trans-4-[(2R,4R)-4-{[(7R)-2,2-difluoro-7-methyl-6,7-dihydro-2H-furo[2,3-f][1,3]benzodioxole-7-carbonyl]amino}-7-(trifluoromethoxy)-3,4-dihydro-2H-1-benzopyran-2-yl]cyclohexane-1-carboxylate] | 41 nM | 145%
C[C@]1(C(=O)N[C@@H]2C[C@H](C3CCC(CN)(C(=O)O)CC3)Oc3cc(OC(F)(F)F)ccc32)COc2cc3c(cc21)OC(F)(F)O3 (stereo partly drawn) [Example 289, 1-(aminomethyl)-4-[(2R,4R)-4-{[(7R)-2,2-difluoro-7-methyl-6,7-dihydro-2H-furo[2,3-f][1,3]benzodioxole-7-carbonyl]amino}-7-(trifluoromethoxy)-3,4-dihydro-2H-1-benzopyran-2-yl]cyclohexane-1-carboxylic acid] | 640 nM | 140%
C[C@]1(C(=O)N[C@@H]2C[C@H](C3CCN(C[C@H](O)CO)CC3)Oc3cc(OC(F)(F)F)ccc32)COc2cc3c(cc21)OC(F)(F)O3 [Example 189, (7R)—N-[(2R,4R)-2-{1-[(2S)-2,3-dihydroxypropyl]piperidin-4-yl}-7-(trifluoromethoxy)-3,4-dihydro-2H-1-benzopyran-4-yl]-2,2-difluoro-7-methyl-6,7-dihydro-2H-furo[2,3-f][1,3]benzodioxole-7-carboxamide] | 2030 nM | 186%
C[C@]1(C(=O)Nc2cccc(N3CCC(CO)(CCl)C3)n2)COc2cc3c(cc21)OC(F)(F)O3 (stereo partly drawn) [Example 110, (7R)—N-{6-[3-(chloromethyl)-3-(hydroxymethyl)pyrrolidin-1-yl]pyridin-2-yl}-2,2-difluoro-7-methyl-6,7-dihydro-2H-furo[2,3-f][1,3]benzodioxole-7-carboxamide] | 3020 nM | 120%
COc1ccc2c(c1)O[C@@H]([C@H]1CC[C@H](C(=O)O)CC1)C[C@H]2NC(=O)[C@@]1(C)COc2c1cc1c(c2I)OC(F)(F)O1 [Example 291, trans-4-[(2R,4R)-4-{[(7R)-2,2-difluoro-4-iodo-7-methyl-6,7-dihydro-2H-furo[2,3-f][1,3]benzodioxole-7-carbonyl]amino}-7-methoxy-3,4-dihydro-2H-1-benzopyran-2-yl]cyclohexane-1-carboxylic acid] | 670 nM | 117%
COc1ccc2c(c1)O[C@H](C1CCC(C(=O)O)CC1)C[C@@H]2NC(=O)[C@]1(C)COc2cc3c(cc21)OC(F)(F)O3 (stereo partly drawn) [Example 293, 4-[(2S,4S)-4-{[(7S)-2,2-difluoro-7-methyl-6,7-dihydro-2H-furo[2,3-f][1,3]benzodioxole-7-carbonyl]amino}-7-methoxy-3,4-dihydro-2H-1-benzopyran-2-yl]cyclohexane-1-carboxylic acid] | 1630 nM | 115%
C=Cc1cnc([C@H]2C[C@@H](NC(=O)[C@@]3(C)COc4cc5c(cc43)OC(F)(F)O5)c3ccc(OC)cc3O2)cn1 [Example 190, (7R)—N-[(2R,4R)-2-(5-ethenylpyrazin-2-yl)-7-methoxy-3,4-dihydro-2H-1-benzopyran-4-yl]-2,2-difluoro-7-methyl-6,7-dihydro-2H-furo[2,3-f][1,3]benzodioxole-7-carboxamide] | 90 nM | 115%
CCOC(=O)c1csc(-c2cccc(NC(=O)[C@@]3(C)COc4cc5c(cc43)OC(F)(F)O5)n2)c1 [Example 82, ethyl 5-(6-{[(7R)-2,2-difluoro-7-methyl-6,7-dihydro-2H-furo[2,3-f][1,3]benzodioxole-7-carbonyl]amino}pyridin-2-yl)thiophene-3-carboxylate] | 3160 nM | 116%
